Measurements from patent US20230152316A1, “SARS-COV2 SPIKE PROTEIN BINDING PEPTIDES” (priority 2020, published 2023).

Target: SARS-CoV-2-RBD (insect-derived) (Severe acute respiratory syndrome coronavirus 2, UniProt P0DTC2, F486P)

## TFLDKFNHEAED [SEQ ID NO: 15]
  binding to SARS-CoV-2-RBD: did not bind
